The values that follow come from patent EP0578521B1, “New peptide derivatives with bradykinin-antagonistic activity, process to prepare them and pharmaceutical compositions containing them” (ADIR ET COMPAGNIE, priority 1992, dated 1996).

Where two headings read alike, the source gives them in different places. Square brackets hold non-standard residues; d marks the D form. Peptide text beside a SMILES is read from it. * marks the point of attachment. Benzoyl(4-guanidino) = N=C(N)Nc1ccc(C(=O)*)cc1; Oic = O=C(O)[C@@H]1C[C@@H]2CCCC[C@@H]2N1; Hyp = O=C(O)[C@@H]1C[C@@H](O)CN1; dTic = O=C(O)[C@H]1Cc2ccccc2CN1; 2Thi = N[C@@H](Cc1cccs1)C(=O)O; Agp = N=C(N)NC[C@H](N)C(=O)O

Experiment [1] deals with oedème de la patte de rat induite par injection de carragénine. As to conditions: rat, 0,1 mg/kg I.V., at time 1 hour, versus vehicle control group.
Description: L'activité anti-inflammatoire des dérivés de l'invention a été mesurée en utilisant le modèle de l'oedème de la patte de rat induite par injection de carragénine (WINTER G. A. et coll. Proc. Soc. Exp. Biol. Med., 3, 544-547, 1960). Cette étude est effectuée sur rats mâles de 180-210 g par lot de 8. Les dérivés de l'invention sont administrés par voie I.V. au temps 0 précédant immédiatement l'injection de carragénine par voie sous-cutanée dans la plante de la patte arrière droite du rat (Carragénine lambda type IV, sigma, solution à 1 %, volume injecté 0,1 ml). Le volume de la patte aux différents temps de l'expérimentation est mesurée par plethysmographie. L'inhibition de l'oedème au temps 3 heures est calculée par rapport à un lot contrôle ayant reçu le véhicule et exprimée en pourcentage d'inhibition.
Experiment [2] deals with Récepteur B2. Type of experiment: cell-based, lapin. The procedure: Exemple 44 : Mesure in vitro de l'effet des dérivés de l'invention vis à vis de la réponse contractile du muscle lisse de la veine jugulaire de lapin induite par la bradykinine
Cette étude a été réalisée selon le protocole décrit par D. REGOLI et J. BARABE (Récepteur B2-Pharmacology of Bradykinin and related kinins, Pharm. Rev., 32, 1, 1-46, 1980). Des anneaux de veine jugulaire sont suspendus dans des chambres d'organes (40 ml) contenant une solution de KREBS thermostatée à 37°C, oxygénée en permanence par un bullage de 95 % 02/5 % CO2. La force isométrique développée par les anneaux est mesurée et enregistrée. La tension de base est d'environ 2 g. Les cuves reçoivent les concentrations du dérivé de l'invention à tester (10^-8M à 10^-5M), une cuve contrôle reçoit le solvant. Une courbe concentration réponse à la bradykinine est réalisée de 10^-10M à 10^-5M avec une progression par demi-log. La puissance des antagonistes à la bradykinine est mesurée à partir des courbes log dose-effet permettant la détermination des pA2 (logarithme négatif de la concentration molaire du dérivé de l'invention qui oblige à doubler la concentration de bradykinine pour obtenir le même effet). Lors de ce test, les dérivés de l'invention ont un pA2 compris entre 9 et 10. Plus particulièrement, le pA2 du composé de l'exemple 2 est égal à 9,1 ± 0,1, celui de l'exemple 3 est égal à 9,4 ± 0,1, celui de l'exemple 5 est égal à 9,3 ± 0,1.

Where [3] appears, read: antagonism of bradykinin concentration-response curve (10^-10M to 10^-5M), rabbit jugular vein rings, compound 10^-8M to 10^-5M, 37°C.

Take “arg-Arg-Pro-Hyp-Gly-Thi-Ser-[3,2-c]ttp-Oic-Arg [Exemple 3]”: the “inhibition de l'oedème” value in experiment [1] was 36%. In addition, in experiment [2] (setting [3]), the pA2 is listed as 9,4 ± 0,1.
Regarding “Gba-Arg-Pro-Hyp-Gly-Thi-Ser-[3,2-c]ttp-Oic-Arg [Exemple 2]”, in experiment [1], the “inhibition de l'oedème” value is listed as 36%. Moreover, in experiment [2] (setting [3]), the pA2 was 9,1 ± 0,1.
For the compound `N=C(N)NCCC[C@H](NC(=O)c1ccc(NC(=N)N)cc1)C(=O)N1CCC[C@H]1C(=O)N1C[C@H](O)C[C@H]1C(=O)NCC(=O)N[C@@H](Cc1cccs1)C(=O)N[C@@H](CO)C(=O)N1Cc2ccccc2C[C@@H]1C(=O)N1[C@H](C(=O)N[C@@H](CNC(=N)N)C(=O)O)C[C@@H]2CCCC[C@@H]21` [Exemple 5, Gba-Arg-Pro-Hyp-Gly-Thi-Ser-tic-Oic-Gpr-OH] ({Benzoyl(4-guanidino)}-RP[Hyp]G[2Thi]S[dTic][Oic][Agp]-OH), the pA2 in experiment [2] is recorded as 9,3 ± 0,1.
